Reference: PubChem BioAssay (NCI)
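A five-concentration, 48-hour dose response in 96-well plates underlies each endpoint, interpolated linearly between surrounding concentrations. TGI is the concentration that stops growth completely.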

Key:
Assay in all cases: inhibition of tumour cell growth, NCI panel, 48 h
NCI-H522 lung = tested on: NCI-H522 lung
LOX IMVI melanoma = tested on: LOX IMVI melanoma
CCRF-CEM leukemia = tested on: CCRF-CEM leukemia
SN12C renal = tested on: SN12C renal
HL-60(TB) leukemia = tested on: HL-60(TB) leukemia
OVCAR-8 ovarian = tested on: OVCAR-8 ovarian
PC-3 prostate = tested on: PC-3 prostate
CAKI-1 renal = tested on: CAKI-1 renal
HOP-92 NSCLC = tested on: HOP-92 NSCLC
SR leukemia = tested on: SR leukemia
SK-MEL-5 melanoma = tested on: SK-MEL-5 melanoma
RPMI-8226 leukemia = tested on: RPMI-8226 leukemia
OVCAR-3 ovarian = tested on: OVCAR-3 ovarian
HCT-15 colon = tested on: HCT-15 colon
NCI-H226 lung = tested on: NCI-H226 lung
SK-OV-3 ovarian = tested on: SK-OV-3 ovarian
SF-539 CNS = tested on: SF-539 CNS
A549 NSCLC = tested on: A549 NSCLC
K-562 leukemia = tested on: K-562 leukemia
MDA-MB-435 = tested on: MDA-MB-435
UO-31 renal = tested on: UO-31 renal
IGROV1 ovarian = tested on: IGROV1 ovarian
SNB-19 CNS = tested on: SNB-19 CNS
MDA-MB-231 breast = tested on: MDA-MB-231 breast
M14 melanoma = tested on: M14 melanoma
U251 CNS = tested on: U251 CNS
UACC-62 melanoma = tested on: UACC-62 melanoma
ACHN renal = tested on: ACHN renal
SK-MEL-28 melanoma = tested on: SK-MEL-28 melanoma
MALME-3M melanoma = tested on: MALME-3M melanoma
SF-268 CNS = tested on: SF-268 CNS
SNB-75 CNS = tested on: SNB-75 CNS
EKVX NSCLC = tested on: EKVX NSCLC
SK-MEL-2 melanoma = tested on: SK-MEL-2 melanoma
UACC-257 melanoma = tested on: UACC-257 melanoma
HT29 colon = tested on: HT29 colon
MDA-N = tested on: MDA-N
BT-549 breast = tested on: BT-549 breast
HCC-2998 colon = tested on: HCC-2998 colon
OVCAR-5 ovarian = tested on: OVCAR-5 ovarian
786-0 renal = tested on: 786-0 renal
HOP-62 NSCLC = tested on: HOP-62 NSCLC
SF-295 CNS = tested on: SF-295 CNS
MOLT-4 leukemia = tested on: MOLT-4 leukemia
HS 578T breast = tested on: HS 578T breast
NCI-H23 lung = tested on: NCI-H23 lung
HCT-116 colon = tested on: HCT-116 colon
OVCAR-4 ovarian = tested on: OVCAR-4 ovarian
KM12 colon = tested on: KM12 colon
MCF7 breast = tested on: MCF7 breast
DU-145 prostate = tested on: DU-145 prostate
COLO 205 colon = tested on: COLO 205 colon
TK-10 renal = tested on: TK-10 renal
NCI/ADR-RES ovarian = tested on: NCI/ADR-RES ovarian
SW-620 colon = tested on: SW-620 colon
T-47D breast = tested on: T-47D breast
RXF 393 renal = tested on: RXF 393 renal

Measured: TGI

COC1CC(OC2C(C)OC(OC3C(C)OC(OC4C(C)OC(O[C@H]5CC[C@@]6(C)C(=CC[C@]7(O)[C@@H]6C[C@@H](OC(=O)/C=C/c6ccccc6)[C@@]6(C)[C@]7(O)CC[C@@]6(O)C(C)=O)C5)CC4OC)CC3OC)CC2OC)OC(C)C1O (some centres undefined)
not listed: RXF 393 renal
> 12.5 µM: all other assays above

CN=C(NN)NS(=O)(=O)c1cc(C)c(Cl)cc1S
74.7 µM: UO-31 renal
75.3 µM: HS 578T breast
97.7 µM: NCI-H522 lung
not listed: ACHN renal | SF-295 CNS | MOLT-4 leukemia | NCI-H23 lung
> 100 µM: all other assays above
